ChEMBL document CHEMBL1153245, “A profile of the in vitro anti-tumor activity of imidazolium-based ionic liquids” (2010)

What was measured:
Type in all cases: functional
[1] = tested on: ACHN; test: Anticancer activity against human ACHN cells assessed cell growth at 10 uM after 48 hrs by sulforhodamine B assay relative to control
[2] = tested on: UO-31; test: Anticancer activity against human UO31 cells assessed cell growth at 10 uM after 48 hrs by sulforhodamine B assay relative to control
[3] = tested on: HOP-62; test: Anticancer activity against human HOP62 cells assessed cell growth at 10 uM after 48 hrs by sulforhodamine B assay relative to control
[4] = tested on: SF-539; test: Anticancer activity against human SF539 cells assessed cell growth at 10 uM after 48 hrs by sulforhodamine B assay relative to control
[5] = tested on: COLO 205; test: Anticancer activity against human COLO205 cells assessed cell growth at 10 uM after 48 hrs by sulforhodamine B assay relative to control
[6] = tested on: KM12; test: Anticancer activity against human KM12 cells assessed cell growth at 10 uM after 48 hrs by sulforhodamine B assay relative to control
[7] = tested on: OVCAR-4; test: Anticancer activity against human OVCAR4 cells assessed cell growth at 10 uM after 48 hrs by sulforhodamine B assay relative to control
[8] = tested on: OVCAR-3; test: Anticancer activity against human OVCAR-3 cells assessed cell growth at 10 uM after 48 hrs by sulforhodamine B assay relative to control
[9] = tested on: SW-620; test: Anticancer activity against human SW620 cells assessed cell growth at 10 uM after 48 hrs by sulforhodamine B assay relative to control
[10] = tested on: DU-145; test: Anticancer activity against human DU145 cells assessed cell growth at 10 uM after 48 hrs by sulforhodamine B assay relative to control
[11] = tested on: PC-3; test: Anticancer activity against human PC3 cells assessed cell growth at 10 uM after 48 hrs by sulforhodamine B assay relative to control
[12] = tested on: NCI-H23; test: Anticancer activity against human NCI-H23 cells assessed cell growth at 10 uM after 48 hrs by sulforhodamine B assay relative to control
[13] = tested on: SN12C; test: Anticancer activity against human SN12C cells assessed cell growth at 10 uM after 48 hrs by sulforhodamine B assay relative to control
[14] = tested on: RXF 393; test: Anticancer activity against human RXF393 cells assessed cell growth at 10 uM after 48 hrs by sulforhodamine B assay relative to control
[15] = tested on: SR; test: Anticancer activity against human SR cells assessed cell growth at 10 uM after 48 hrs by sulforhodamine B assay relative to control
[16] = tested on: MOLT-4; test: Anticancer activity against human MOLT4 cells assessed cell growth at 10 uM after 48 hrs by sulforhodamine B assay relative to control
[17] = tested on: HOP-92; test: Anticancer activity against human HOP92 cells assessed cell growth at 10 uM after 48 hrs by sulforhodamine B assay relative to control
[18] = tested on: UACC-62; test: Anticancer activity against human UACC62 cells assessed cell growth at 10 uM after 48 hrs by sulforhodamine B assay relative to control
[19] = tested on: K562; test: Anticancer activity against human K562 cells assessed cell growth at 10 uM after 48 hrs by sulforhodamine B assay relative to control
[20] = tested on: OVCAR-8; test: Anticancer activity against human OVCAR8 cells assessed cell growth at 10 uM after 48 hrs by sulforhodamine B assay relative to control
[21] = tested on: MDA-MB-231; test: Anticancer activity against human MDA-MB-231 cells assessed cell growth at 10 uM after 48 hrs by sulforhodamine B assay relative to control
[22] = tested on: HCT-116; test: Anticancer activity against human HCT116 cells assessed cell growth at 10 uM after 48 hrs by sulforhodamine B assay relative to control
[23] = tested on: M14; test: Anticancer activity against human M14 cells assessed cell growth at 10 uM after 48 hrs by sulforhodamine B assay relative to control
[24] = tested on: HL-60(TB); test: Anticancer activity against human HL-60(TB) cells assessed cell growth at 10 uM after 48 hrs by sulforhodamine B assay relative to control
[25] = tested on: SK-OV-3; test: Anticancer activity against human SKOV3 cells assessed cell growth at 10 uM after 48 hrs by sulforhodamine B assay relative to control
[26] = tested on: T47D; test: Anticancer activity against human T47D cells assessed cell growth at 10 uM after 48 hrs by sulforhodamine B assay relative to control
[27] = tested on: A549; test: Anticancer activity against human A549 cells assessed cell growth at 10 uM after 48 hrs by sulforhodamine B assay relative to control
[28] = tested on: CAKI-1; test: Anticancer activity against human Caki1 cells assessed cell growth at 10 uM after 48 hrs by sulforhodamine B assay relative to control
[29] = tested on: SF-295; test: Anticancer activity against human SF295 cells assessed cell growth at 10 uM after 48 hrs by sulforhodamine B assay relative to control
[30] = tested on: A498; test: Anticancer activity against human A498 cells assessed cell growth at 10 uM after 48 hrs by sulforhodamine B assay relative to control
[31] = Anticancer activity against human RPMI8266 cells assessed cell growth at 10 uM after 48 hrs by sulforhodamine B assay relative to control
[32] = tested on: NCI/ADR-RES; test: Anticancer activity against human NCI/ADR-RES cells assessed cell growth at 10 uM after 48 hrs by sulforhodamine B assay relative to control
[33] = tested on: TK-10; test: Anticancer activity against human TK10 cells assessed cell growth at 10 uM after 48 hrs by sulforhodamine B assay relative to control
[34] = tested on: CCRF-CEM; test: Anticancer activity against human CCRF-CEM cells assessed cell growth at 10 uM after 48 hrs by sulforhodamine B assay relative to control
[35] = tested on: HCC 2998; test: Anticancer activity against human HCC2998 cells assessed cell growth at 10 uM after 48 hrs by sulforhodamine B assay relative to control
[36] = tested on: LOX IMVI; test: Anticancer activity against human LOXIMVI cells assessed cell growth at 10 uM after 48 hrs by sulforhodamine B assay relative to control
[37] = tested on: IGROV-1; test: Anticancer activity against human IGROV1 cells assessed cell growth at 10 uM after 48 hrs by sulforhodamine B assay relative to control
[38] = tested on: NCI-H522; test: Anticancer activity against human NCI-H522 cells assessed cell growth at 10 uM after 48 hrs by sulforhodamine B assay relative to control
[39] = tested on: SNB-75; test: Anticancer activity against human SNB75 cells assessed cell growth at 10 uM after 48 hrs by sulforhodamine B assay relative to control
[40] = tested on: NCI-H460; test: Anticancer activity against human NCI-H460 cells assessed cell growth at 10 uM after 48 hrs by sulforhodamine B assay relative to control
[41] = tested on: SF-268; test: Anticancer activity against human SF268 cells assessed cell growth at 10 uM after 48 hrs by sulforhodamine B assay relative to control
[42] = tested on: OVCAR-5; test: Anticancer activity against human OVCAR5 cells assessed cell growth at 10 uM after 48 hrs by sulforhodamine B assay relative to control
[43] = tested on: NCI-H322M; test: Anticancer activity against human NCI-H322M cells assessed cell growth at 10 uM after 48 hrs by sulforhodamine B assay relative to control

CCCCCCCCCCCCCCCCCC[n+]1ccn(C)c1.FC(F)(F)C(F)(F)[P-](F)(F)(F)(C(F)(F)C(F)(F)F)C(F)(F)C(F)(F)F
Activity [1]: -53.6%
Activity [2]: -55.23%
Activity [3]: -79.75%
Activity [4]: -80.42%
Activity [5]: 5.01%
Activity [6]: -56.04%
Activity [7]: -18.12%
Activity [8]: -53.86%
Activity [9]: -25.6%
Activity [10]: 7.06%
Activity [11]: -57.75%
Activity [12]: -62.26%
Activity [13]: -75.69%
Activity [14]: -44.46%
Activity [15]: 24.53%
Activity [16]: 17.16%
Activity [17]: -39.5%
Activity [18]: -73.94%
Activity [19]: 26.87%
Activity [20]: -31.79%
Activity [21]: -73.64%
Activity [22]: -57.3%
Activity [23]: -26.94%
Activity [24]: 15.34%
Activity [25]: 10.45%
Activity [26]: 32.25%
Activity [27]: -19.59%
Activity [28]: -71.63%
Activity [29]: -26.82%
Activity [30]: -47.4%
Activity [31]: 49.96%
Activity [32]: -50.87%
Activity [33]: -60.38%
Activity [34]: 35.34%
Activity [35]: -80.57%
Activity [36]: -25.56%
Activity [37]: -30.94%
Activity [38]: -63.43%
Activity [39]: -47.53%
Activity [40]: -53.73%
Activity [41]: -47.08%
Activity [42]: -56.76%
Activity [43]: 5.98%

CCCCCCCCCCCCCCCCCC[n+]1ccn(C)c1.[Cl-]
Activity [1]: -12.35%
Activity [2]: -61.43%
Activity [3]: -58.64%
Activity [4]: -85.24%
Activity [5]: 1.82%
Activity [6]: -47.8%
Activity [7]: -19.32%
Activity [8]: -48.71%
Activity [9]: -45.24%
Activity [10]: -7.74%
Activity [11]: -54.01%
Activity [12]: -48.94%
Activity [13]: -52.54%
Activity [14]: -28.27%
Activity [15]: 4.33%
Activity [16]: 16.78%
Activity [17]: -51.3%
Activity [18]: -70.86%
Activity [19]: 28.31%
Activity [20]: -20.19%
Activity [21]: -66.25%
Activity [22]: -18.25%
Activity [23]: -33.7%
Activity [24]: 3.76%
Activity [25]: 4.83%
Activity [26]: 35.89%
Activity [27]: -15.21%
Activity [28]: -67.34%
Activity [29]: -10.43%
Activity [30]: -50.94%
Activity [31]: 93.78%
Activity [32]: 20.86%
Activity [33]: -70.24%
Activity [34]: 34.04%
Activity [35]: -80.71%
Activity [36]: 0.13%
Activity [37]: -43.92%
Activity [38]: -74.88%
Activity [39]: -74.36%
Activity [40]: -62.94%
Activity [41]: -45.4%
Activity [42]: -61.54%
Activity [43]: 5.3%

CCCCCCCCCCCCCCCC[n+]1ccn(C)c1.[Cl-]
Activity [1]: -0.6%
Activity [2]: -85.85%
Activity [3]: -82.71%
Activity [4]: -98.59%
Activity [5]: -45.99%
Activity [6]: -83.88%
Activity [7]: -54.83%
Activity [8]: -24.76%
Activity [9]: -66.67%
Activity [10]: -69.69%
Activity [11]: -100%
Activity [12]: -51.9%
Activity [13]: -94.61%
Activity [14]: -66.19%
Activity [15]: 15.17%
Activity [16]: 17.19%
Activity [17]: -80.2%
Activity [18]: -94.58%
Activity [19]: 72.56%
Activity [20]: -53.71%
Activity [21]: -93.87%
Activity [22]: -87.23%
Activity [23]: -73.7%
Activity [24]: 45.73%
Activity [25]: -33.78%
Activity [26]: -0.13%
Activity [27]: -50.92%
Activity [28]: -83.54%
Activity [29]: -39.48%
Activity [30]: -65.31%
Activity [31]: 15.77%
Activity [32]: 37.13%
Activity [33]: -80.37%
Activity [34]: 33.57%
Activity [35]: -94.43%
Activity [36]: -50.37%
Activity [37]: -67.13%
Activity [38]: -87.38%
Activity [39]: -98.62%
Activity [40]: -87.94%
Activity [41]: -22.98%
Activity [42]: -67.51%
Activity [43]: 8.28%

CCCCCCCCCCCC[n+]1ccn(C)c1.F[B-](F)(F)F
Activity [1]: 54.07%
Activity [2]: 68.16%
Activity [3]: 28.7%
Activity [4]: 35.07%
Activity [5]: 15.15%
Activity [6]: 21.76%
Activity [7]: 12.68%
Activity [8]: 55.26%
Activity [9]: 54.63%
Activity [10]: 7.97%
Activity [11]: 74.38%
Activity [12]: 23.04%
Activity [13]: 21.24%
Activity [14]: 22.19%
Activity [15]: 100.03%
Activity [16]: 71.98%
Activity [17]: 46.45%
Activity [18]: 40.33%
Activity [19]: 80.69%
Activity [20]: 13.12%
Activity [21]: 26.48%
Activity [22]: 16.24%
Activity [23]: 24.71%
Activity [24]: 50.79%
Activity [25]: 47.29%
Activity [26]: 11.08%
Activity [27]: 37.89%
Activity [28]: 30.59%
Activity [29]: 34.1%
Activity [30]: 35.81%
Activity [31]: 130.35%
Activity [32]: 76.53%
Activity [33]: 24.24%
Activity [34]: 96%
Activity [35]: 28.68%
Activity [36]: 35.51%
Activity [37]: 1.02%
Activity [38]: -10.37%
Activity [39]: 3.39%
Activity [40]: 23.03%
Activity [41]: 66.79%
Activity [42]: 48.72%
Activity [43]: 67.4%
